# From patent US20150238425A1, “MINI-TABLETS” (DSM SINOCHEM PHARMACEUTICALS NETHERLANDS B.V., priority 2012, published 2015)
# Columns and labels:
# [1] = Stability of mini-tablets (Series 1-8) compared to an amoxicillin reference sample as a function of time; format: physicochemical
# Description: (§1) The 8 mini-tablets prepared in Example 1 and an amoxicillin reference sample were analyzed for stability. Stability data for clavulanic acid in mini-tablets compared to a clavulanic acid reference sample were also analyzed for stability.
# [2] = Stability of mini-tablets containing clavulanic acid compared to a clavulanic acid reference sample as a function of time; format: physicochemical
# Description: as §1
Structure (SMILES),Stability (amoxicillin) as a function of time ([1]; 0 weeks),Stability (amoxicillin) as a function of time ([1]; 1 week),Stability (amoxicillin) as a function of time ([1]; 49 weeks),Stability (clavulanic acid) as a function of time ([2]; 0 weeks) [%],Stability (clavulanic acid) as a function of time ([2]; 1 week) [%],Stability (clavulanic acid) as a function of time ([2]; 26 weeks) [%]
"CC1(C)S[C@@H]2[C@H](NC(=O)[C@H](N)c3ccc(O)cc3)C(=O)N2[C@H]1C(=O)O [Amoxicillin reference, Amoxicillin]",100.0,100.0,97.8,,,
"O=C(O)[C@H]1/C(=C/CO)O[C@@H]2CC(=O)N21 [Clavulanic acid reference, Clavulanic acid]",,,,100,86.4,88.4
